In ChEMBL document CHEMBL1158843, “Development of a radiochemical cyclooxygenase-1 and -2 in vitro assay for identification of natural products as inhibitors of prostaglandin biosynthesis” (J Nat Prod, 1998):

What was measured:
[1] = molecular target: T1, Prostaglandin G/H synthase 1 (Bos taurus, UniProt O62664); test: Inhibition of bovine seminal microsomal COX1 assessed as PGE2 production preincubated for 10 mins
T1 sequence (O62664 whole entry): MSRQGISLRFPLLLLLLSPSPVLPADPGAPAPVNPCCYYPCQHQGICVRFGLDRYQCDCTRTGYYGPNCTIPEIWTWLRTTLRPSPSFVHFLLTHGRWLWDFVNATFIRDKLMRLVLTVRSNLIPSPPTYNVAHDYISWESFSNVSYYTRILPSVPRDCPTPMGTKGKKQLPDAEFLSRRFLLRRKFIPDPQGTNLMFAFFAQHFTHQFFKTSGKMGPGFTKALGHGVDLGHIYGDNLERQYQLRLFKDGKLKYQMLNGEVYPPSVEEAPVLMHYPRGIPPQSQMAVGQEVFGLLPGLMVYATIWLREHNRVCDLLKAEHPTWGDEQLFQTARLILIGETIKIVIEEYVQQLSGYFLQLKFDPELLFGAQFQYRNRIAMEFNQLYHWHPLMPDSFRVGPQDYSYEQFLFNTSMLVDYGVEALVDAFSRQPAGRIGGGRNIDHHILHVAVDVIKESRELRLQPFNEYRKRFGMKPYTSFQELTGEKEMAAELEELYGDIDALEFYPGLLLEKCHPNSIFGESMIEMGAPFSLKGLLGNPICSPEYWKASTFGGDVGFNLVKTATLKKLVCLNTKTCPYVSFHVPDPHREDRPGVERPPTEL

[2] = molecular target: T1, Prostaglandin G/H synthase 1; test: Inhibition of bovine seminal microsomal COX1 assessed as PGE2 production

SMILES	IC50 [1] [µM]	IC50 [2] [µM]
C[C@@H]1O[C@@H](Oc2c(-c3ccc(O)c(O)c3)oc3cc(O)cc(O)c3c2=O)[C@H](O)[C@H](O)[C@H]1O [QUERCITRIN]	> 2000	> 2000
Oc1cc(O)c2c(c1)O[C@H](c1ccc(O)c(O)c1)[C@@H](O)C2 [CIANIDANOL]	279	183
